Laboratory results reported in patent US11981626B1, “Compound embodiments for hydrogen sulfide production and methods of making and using the same” (University of Oregon, priority 2018, dated 2024).

Columns and labels:
[1] = H2S release observed with an H2S electrode at different pH; assay type: physicochemical; details: PBS pH 6.0-8.0
Excerpt: H2S release was also observed by using an H2S electrode, confirming that H2S was released in this system and such H2S release was pH-dependent (FIGS. 3A and 3B). This example therefore establishes that COS/H2S release from compound embodiments of the present disclosure can be pH dependent.

[2] = H2S production measured by methylene blue (MB) assay in PBS containing BSA and CA; assay type: physicochemical; details: 37° C.
Method: Using the same conditions, H2S production was measured at different time points using the MB assay (FIG. 5A, curve labeled with the “▾” symbol). The MB assay allows for H2S quantification from the reaction of H2S with N,N-dimethyl-p-phenylenediamine in the presence of FeCl3 and acid to produce methylene blue (MB, λmax=670). In the MB assay, a γ-KetoTCM-1 stock solution (100 μL, 10.0 mM in DMSO) was added to 20.0 mL of PBS (pH 7.40, 10.0 mM) containing BSA (5.00 mg/mL) and CA (25.0 μg/mL) in a 25-mL scintillation vial at 37° C. Next, 0.300 mL aliquots of the reaction mixture were transferred to UV cuvettes containing 0.300 mL of MB cocktail at different time points. The MB reaction mixture was incubated at room temperature for 1 hour and the precipitate was removed using syringe filters. The absorbance at 670 nm was then measured and was converted to H2S concentration by using the H2S calibration curve in FIG. 6. […] The MB solution was allowed to react with H2S for 1 hour before measuring the absorbance at 670 nm.
The linearity between these two methods was lost after 60 minutes due to the oxidation of H2S in the MB assay at extended incubation times (FIG. 5A). […] The absorbance at 670 nm was then measured and converted to H2S concentration by using the H2S calibration curve in FIG. 6. […]

CC(=O)CCOC(=S)Nc1ccc([N+](=O)[O-])cc1 [γ-KetoTCM-1]
H2S release by H2S electrode [1]: pH-dependent
H2S release efficiency ([2]; MB assay, 50 μM, PBS pH 7.4, BSA): 70%
pseudo first-order rate constant kobs from fitting the MB data ([2]; PBS pH 7.4, BSA 5 mg/mL, up to plateau (~60 minutes)): 8.6±0.9 ×10^−4 s^−1
